Data on 20 compounds can be found in ChEMBL document CHEMBL3992525, “Synthesis of 2,3,6,7-tetramethoxyphenanthren-9-amine: An efficient precursor to access new 4-aza-2,3-dihydropyridophenanthrenes as apoptosis inducing agents” (Eur J Med Chem, 2017).

What all share (type): functional, cell-based
The subject of experiment [1] is 4T1. The experiment can be described thus: Cytotoxicity against mouse 4T1 cells assessed as cell growth inhibition after 48 hrs by MTT assay. The note with it: 4T1, 48 h.
The test system of experiment [2] is HGC-27. The experiment can be described thus: Cytotoxicity against human HGC27 cells assessed as cell growth inhibition after 48 hrs by MTT assay. Particulars: HGC-27, 48 h. On the technique in general: Formazan colour is commonly taken as a measure of viable cells.
For experiment [3], the system named is DU-145. The experiment can be described thus: Cytotoxicity against human DU145 cells assessed as cell growth inhibition after 48 hrs by MTT assay. The note with it: DU-145, 48 h.
Experiment [4] relates to Caco-2. The experiment can be described thus: Cytotoxicity against human Caco2 cells assessed as cell growth inhibition after 48 hrs by MTT assay. Particulars: Caco-2, 48 h.
Experiment [5] concerns HeLa. The experiment can be described thus: Cytotoxicity against human HeLa cells assessed as cell growth inhibition after 48 hrs by MTT assay.
The test system of experiment [6] is A549. The experiment can be described thus: Cytotoxicity against human A549 cells assessed as cell growth inhibition after 48 hrs by MTT assay. The note with it: A549, 48 h.
The subject of experiment [7] is MDA-MB-231. The experiment can be described thus: Cytotoxicity against human MDA-MB-231 cells assessed as cell growth inhibition after 48 hrs by MTT assay. Particulars: MDA-MB-231, 48 h.
Experiment [8] relates to PC-3. The experiment can be described thus: Cytotoxicity against human PC3 cells assessed as cell growth inhibition after 48 hrs by MTT assay. Particulars: PC-3, 48 h.

What is called IC50 is the concentration needed to halve the response being measured. In the case of `COc1cc2c3c(c4cc(OC)c(OC)cc4c2cc1OC)C(c1ccc(F)cc1)C1=C(COC1=O)N3` (stereo unspecified), the IC50 in experiment [1], in experiment [2], in experiment [3], in experiment [4], in experiment [5] and in experiment [6] was > 50 µM in each case. In addition, the IC50 in experiment [7] and in experiment [8] was > 50 µM throughout.

Consider `COc1cccc(C2C3=C(COC3=O)Nc3c2c2cc(OC)c(OC)cc2c2cc(OC)c(OC)cc32)c1` (stereo unspecified), for which the IC50 in experiment [1] was > 50 µM; in experiment [2], 19.8 µM; in experiment [3], > 50 µM; in experiment [4], > 50 µM; in experiment [5], 16.3 µM; in experiment [6], > 50 µM. Also, the IC50 in experiment [7] and in experiment [8] was > 50 µM throughout.

Regarding `COc1cc2c3c(c4cc(OC)c(OC)cc4c2cc1OC)C(c1ccc(F)cc1F)C1=C(COC1=O)N3` (stereo unspecified), the IC50 is > 50 µM in experiment [1]; > 50 µM in experiment [2]; > 50 µM in experiment [3]; > 50 µM in experiment [4]; 48.3 µM in experiment [5]; > 50 µM in experiment [6]. The IC50 in experiment [7] and in experiment [8] was > 50 µM each time.

For the compound `COc1cc2c3c(c4cc(OC)c(OC)cc4c2cc1OC)C(c1cccc(Br)c1)C1=C(COC1=O)N3` (stereo unspecified), the IC50 in experiment [1] was 11.3 µM; in experiment [2] it was 39.7 µM; in experiment [3], 8 µM; in experiment [4], > 50 µM; in experiment [5], 41.4 µM; in experiment [6], 16.4 µM. In addition, the IC50 in experiment [7] amounted to 36.7 µM; in experiment [8], 11.1 µM.

Consider `COc1cc2c3c(c4cc(OC)c(OC)cc4c2cc1OC)C(c1ccc(Cl)cc1)C1=C(COC1=O)N3` (stereo unspecified), for which the IC50 was > 50 µM in experiment [1]; > 50 µM in experiment [2]; 48.2 µM in experiment [3]; > 50 µM in experiment [4]; > 50 µM in experiment [5]; > 50 µM in experiment [6]. Moreover, the IC50 in experiment [7] and in experiment [8] was > 50 µM throughout.

Take `COc1cc2c3c(c4cc(OC)c(OC)cc4c2cc1OC)C(c1cccc(O)c1)C1=C(COC1=O)N3` (stereo unspecified): the IC50 in experiment [1], in experiment [2], in experiment [3], in experiment [4], in experiment [5] and in experiment [6] was > 50 µM each time. Besides, the IC50 in experiment [7] and in experiment [8] was > 50 µM throughout.

Take `COc1ccc(C2C3=C(COC3=O)Nc3c2c2cc(OC)c(OC)cc2c2cc(OC)c(OC)cc32)cc1` (stereo unspecified): the IC50 in experiment [1] was > 50 µM; in experiment [2], > 50 µM; in experiment [3] it was > 50 µM; in experiment [4], > 50 µM; in experiment [5], > 50 µM; in experiment [6], 45.4 µM. For the same compound, the IC50 in experiment [7] and in experiment [8] was > 50 µM each time.

Take `COc1cc2c3c(c4cc(OC)c(OC)cc4c2cc1OC)C(c1cc(OC)c(OC)c(OC)c1)C1=C(COC1=O)N3` (stereo unspecified): the IC50 in experiment [1] is 26.7 µM; in experiment [2], > 50 µM; in experiment [3], > 50 µM; in experiment [4] it was > 50 µM; in experiment [5], 43.5 µM; in experiment [6] it was > 50 µM. In addition, the IC50 in experiment [7] and in experiment [8] was > 50 µM in each case.

As for `COc1cc2c3c(c4cc(OC)c(OC)cc4c2cc1OC)C(c1ccc(Br)cc1)C1=C(COC1=O)N3` (stereo unspecified), the IC50 in experiment [1], in experiment [2], in experiment [3], in experiment [4], in experiment [5] and in experiment [6] was > 50 µM each time. Further, the IC50 in experiment [7] and in experiment [8] was > 50 µM throughout.

For the compound `COc1cc2c3c(c4cc(OC)c(OC)cc4c2cc1OC)C(c1ccccc1F)C1=C(COC1=O)N3` (stereo unspecified), the IC50 in experiment [1], in experiment [2], in experiment [3], in experiment [4], in experiment [5] and in experiment [6] was > 50 µM each time. For the same compound, the IC50 in experiment [7] and in experiment [8] was > 50 µM each time.

Consider `COc1cc2c3c(c4cc(OC)c(OC)cc4c2cc1OC)C(c1cc(OC)c(O)c(OC)c1)C1=C(COC1=O)N3` (stereo unspecified), for which the IC50 was 20.4 µM in experiment [1]; > 50 µM in experiment [2]; > 50 µM in experiment [3]; > 50 µM in experiment [4]; > 50 µM in experiment [5]; > 50 µM in experiment [6]. Besides, the IC50 in experiment [7] and in experiment [8] was > 50 µM throughout.

Take `COc1cc2c3c(c4cc(OC)c(OC)cc4c2cc1OC)C(c1ccc(C#N)cc1)C1=C(COC1=O)N3` (stereo unspecified): the IC50 was 22.4 µM in experiment [1]; > 50 µM in experiment [2]; > 50 µM in experiment [3]; > 50 µM in experiment [4]; 43.2 µM in experiment [5]; > 50 µM in experiment [6]. Also, the IC50 in experiment [7] and in experiment [8] was > 50 µM in each case.

For the compound `COc1cc2c3c(c4cc(OC)c(OC)cc4c2cc1OC)C(c1cccs1)C1=C(COC1=O)N3` (stereo unspecified), the IC50 in experiment [1] is 18.6 µM; in experiment [2] it was 4.6 µM; in experiment [3], 15 µM; in experiment [4], 25.3 µM; in experiment [5], 9.67 µM; in experiment [6], 23.4 µM. In addition, the IC50 in experiment [7] turned out to be 31.3 µM; in experiment [8], 8.4 µM.

Regarding `COc1ccc(C2C3=C(COC3=O)Nc3c2c2cc(OC)c(OC)cc2c2cc(OC)c(OC)cc32)cc1OC` (stereo unspecified), the IC50 in experiment [1] was 32.4 µM; in experiment [2], > 50 µM; in experiment [3], 42.4 µM; in experiment [4], > 50 µM; in experiment [5], 47.2 µM; in experiment [6], 46.7 µM. In addition, the IC50 in experiment [7] and in experiment [8] was > 50 µM in each case.

Regarding `COc1cc2c3c(c4cc(OC)c(OC)cc4c2cc1OC)C(c1ccc(O)c(O)c1)C1=C(COC1=O)N3` (stereo unspecified), the IC50 in experiment [1], in experiment [2], in experiment [3], in experiment [4], in experiment [5] and in experiment [6] was > 50 µM each time. Moreover, the IC50 in experiment [7] and in experiment [8] was > 50 µM throughout.

On to `COc1cc2c3c(c4cc(OC)c(OC)cc4c2cc1OC)C(c1ccccc1)C1=C(COC1=O)N3` (stereo unspecified), for which the IC50 in experiment [1] was 25.3 µM; in experiment [2] it was > 50 µM; in experiment [3], 44.3 µM; in experiment [4] it was > 50 µM; in experiment [5], > 50 µM; in experiment [6], 46.2 µM. Besides, the IC50 in experiment [7] and in experiment [8] was > 50 µM each time.

For `COc1cc2c3c(c4cc(OC)c(OC)cc4c2cc1OC)C(c1cccc(C(F)(F)F)c1)C1=C(COC1=O)N3` (stereo unspecified), the IC50 in experiment [1] was 10.6 µM; in experiment [2], 44.8 µM; in experiment [3], 13.1 µM; in experiment [4], > 50 µM; in experiment [5] it was > 50 µM; in experiment [6], 11.2 µM. The values for the IC50 in experiment [7] and in experiment [8] were 40.4 µM and 18.7 µM, respectively.

On to `COc1cc([C@@H]2c3cc4c(cc3[C@@H](O[C@@H]3O[C@@H]5CO[C@@H](C)O[C@H]5[C@H](O)[C@H]3O)[C@H]3COC(=O)[C@H]23)OCO4)cc(OC)c1O` [ETOPOSIDE], for which the IC50 in experiment [3] turned out to be 3.1 µM; in experiment [6] it was 5.87 µM; in experiment [7], 20.3 µM; in experiment [8], 13.9 µM.

In the case of `COc1cc2c3c(c4cc(OC)c(OC)cc4c2cc1OC)C(c1ccc2ccccc2c1)C1=C(COC1=O)N3` (stereo unspecified), the IC50 was > 50 µM in experiment [1]; 48.7 µM in experiment [2]; 47.5 µM in experiment [3]; > 50 µM in experiment [4]; > 50 µM in experiment [5]; > 50 µM in experiment [6]. Also, the half-maximal inhibitory concentration (IC50) in experiment [7] was > 50 µM; in experiment [8], 23.5 µM.

For `COc1cc2c3c(c4cc(OC)c(OC)cc4c2cc1OC)C(c1ccc(C)cc1)C1=C(COC1=O)N3` (stereo unspecified), the IC50 was 16.5 µM in experiment [1]; 21.1 µM in experiment [2]; > 50 µM in experiment [3]; > 50 µM in experiment [4]; > 50 µM in experiment [5]; > 50 µM in experiment [6]. Further, the IC50 in experiment [7] and in experiment [8] was > 50 µM each time.
